The target of experiment [1] is T1, muscarinic M2 receptor (Rattus norvegicus, UniProt P10980).
T1 construct: the membrane preparations of the heart were used as the test specimens; from tissue; host or cells: rat heart membranes (male SD rats)
T1 sequence (P10980 1-466): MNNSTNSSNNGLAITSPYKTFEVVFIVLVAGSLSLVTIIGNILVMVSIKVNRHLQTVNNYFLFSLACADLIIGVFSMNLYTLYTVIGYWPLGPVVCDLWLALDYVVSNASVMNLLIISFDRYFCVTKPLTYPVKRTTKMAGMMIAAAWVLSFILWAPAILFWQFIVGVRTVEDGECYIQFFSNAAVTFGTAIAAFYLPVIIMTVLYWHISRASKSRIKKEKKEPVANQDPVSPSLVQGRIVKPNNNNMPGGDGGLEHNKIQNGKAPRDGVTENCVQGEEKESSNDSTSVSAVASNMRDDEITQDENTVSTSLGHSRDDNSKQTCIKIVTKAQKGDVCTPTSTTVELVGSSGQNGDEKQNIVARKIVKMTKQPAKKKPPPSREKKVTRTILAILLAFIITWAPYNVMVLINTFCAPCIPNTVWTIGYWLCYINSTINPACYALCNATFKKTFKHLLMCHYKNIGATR
Briefly: Inhibition of M2 muscarinic receptor binding ([3H]-N-methylscopolamine, heart membrane). The note with it: 0.2 nM [3H]-N-methylscopolamine. The protocol: Hereinafter action of compounds of the present invention to inhibit binding to muscarinic receptors and their in vitro and in vivo antagonism to muscarinic receptors are described, to concretely indicate utility of the present invention. As the labelling ligand for M1 muscarinic receptor, [^3 H]-telenzepine was used and as that for M2 and M3 muscarinic receptors, [^3 H]-N-methyl-scopolamine was used, and dissociation constants (Ki) were calculated from concentration of each of the tested compounds to inhibit binding of the labelling ligand by 50% (IC50).
(§1) Male SD strain rats weighing each 250 g-350 g [Japan Charles River K.K.] were sacrificed and their cerebral cortices, hearts and lacrimal glands were extirpated. The isolated organs were homogenized with Polytron (setting: 5) in an ice-cooled, 5-times diluted buffer solution (pH 7.4) containing 50 mM tris-hydrochloric acid, 5 mM magnesium chloride, 1 mM ethylenediamine-tetraacetic acid trisodium salt and 20% sucrose, followed by 15 minutes' centrifuge at 3,000×g and 4° C. After filtering the supernatant through gauze cloth, the filtrate was further subjected to an ultracentrifugation at 100,000×g at 4° C. for 45 minutes. The resultant precipitate was suspended in an ice-cooled buffer solution (pH 7.4, hereafter abbreviated as tris buffer) containing 50 mM tris-hydrochloric acid and 5 mM magnesium chloride. The suspension was subjected to an ultracentrifugation at 100,000×g at 4° C. for 45 minutes. The resultant precipitate was suspended in tris buffer at a concentration of 50 mg/ml and kept at -80° C. until the time of use. It was melted at the time of use in the binding inhibition tests.
These tests were performed according to a modification of the method of Hargreaves et al. (Br. J. Pharmacol. 107: pp. 494-501, 1992). […] After drying the filter at 50° C. for an hour, a scintillator (Microscinti O: Packard Instrument Co., Inc.) was added and the radioactivity of the [^3 H]-telenzepine which was adsorbed onto the filter was measured with a microplate scintillation counter (Top Count: Packard Instrument Co., Inc.). Non-specific binding of [^3 H]-telenzepine to the receptors was determined under addition of 10 μM pirenzepine. […]
The test was conducted in the manner similar to above 2) M1 muscarinic receptor binding inhibition test, except that the membrane preparations of the heart were used as the test specimens and 0.2 nM [^3 H]-N-methylscopolamine ([^3 H]-N-Methylscopolamine, 84 Ci/mmol, New England Nuclear) was used as the labelling ligand. Non-specific binding of [^3 H]-N-methylscopolamine to the receptors was determined under addition of 1 μM N-methylscopolamine.

Experiment [2] concerns the target T2, muscarinic M3 receptor (Rattus norvegicus, UniProt P08483).
T2 construct: the membrane preparations of the lacrimal glands were used as the test specimens; from tissue; host or cells: rat lacrimal gland membranes (male SD rats)
The experiment is described as follows: Inhibition of M3 muscarinic receptor binding ([3H]-N-methylscopolamine, lacrimal gland membrane). The note with it: for Ki: rat lacrimal gland membrane, 0.02 nM [3H]-N-methylscopolamine; for M1 / M3 / M2 / M3: ratio of binding Ki. As to the method: as §1
(§2) Namely, a cerebral cortex membrane preparation, 1 nM [^3 H]-telenzepine ([^3 H]-Telenzepine, 85 Ci/mmol, New England Nuclear) and a test compound were incubated in 0.5 ml of tris buffer at room temperature (about 20-25° C.) for 120 minutes. Into the incubated system, 0.5 ml of ice-cooled tris buffer was added and suction-filtered with a glass filter (Packard Unifilter Plate GF/C). The filter was washed 4 times each with 1 ml of ice-cooled tris buffer. After drying the filter at 50° C. for an hour, a scintillator (Microscinti O: Packard Instrument Co., Inc.) was added and the radioactivity of the [^3 H]-telenzepine which was adsorbed onto the filter was measured with a microplate scintillation counter (Top Count: Packard Instrument Co., Inc.). Non-specific binding of [^3 H]-telenzepine to the receptors was determined under addition of 10 μM pirenzepine.
The test was conducted in the manner similar to above 2) M1 muscarinic receptor binding inhibition test, except that the membrane preparations of the lacrimal glands were used as the test specimens and 0.02 nM [^3 H]-N-methylscopolamine was used as the labelling ligand. Non-specific binding of [^3 H]-N-methylscopolamine to the receptor was determined under addition of 1 μM N-methylscopolamine.

Experiment [3] concerns the target T3, right atrium M2 receptor (Rattus norvegicus, UniProt P10980).
T3 construct: the right atrium was isolated; from tissue; host or cells: isolated rat right atrium (male SD rats)
T3 sequence (P10980 1-466): T1 sequence (P10980 1-466)
Briefly: Antagonism to M2 receptor in isolated rat right atrium. The conditions noted are these: agonist carbachol. As to the method: This test was conducted following the method of Wess, et al. [British Journal of Pharmacology, Vol. 102, pp. 246-250]. Male SD strain rats (weighing 200-300 g) were sacrificed by exsanguination and the right atrium was isolated. […] The heart rate was recorded with a heart rate counter. After the preparation was equilibrated for 30 minutes, carbachol (10^-9 to 10^-6 M) was cumulatively administered from a low concentration to three-fold increased doses. Thus, a decrease in heart rate was measured to obtain a control dose-response curve. After the preparation was washed with fresh solution to recover the heart rate, a test compound was administered thereto. Ten minutes later, carbachol was cumulatively administered again. Carbachol-induced responses were expressed as percentages based on the heart rate before administration of carbachol as 100%.

In experiment [4] the target is T4, airway M3 receptor (Rattus norvegicus, UniProt P08483).
T4 construct: the trachea was isolated; from tissue; host or cells: isolated rat trachea (male SD rats)
The experiment is described as follows: Antagonism to airway M3 receptor in isolated rat trachea. The conditions noted are these: agonist carbachol.
Description: Male SD strain rats (200-300 g) were sacrificed by exsanguination and the trachea was isolated. Ring segments (2 mm wide) were cut out from the trachea and cut transversely at the anterior cartilage part to make open ring preparations. Each preparation was suspended in a Magnus tube filled with 5 ml of Krebs-Henseleit solution (gassed with 95% O2 -5% CO2, at 37° C.) at an initial tension of 1.0 g and a resting tension of 0.6 g. The tension of the preparation was recorded isometrically. After being equilibrated for an hour, the preparation was made to contract twice by treatment with 10^-4 M carbachol, and the second contraction induced by carbachol was used as the reference contraction. After the preparation was washed with fresh solution to be recovered to the base line, a test compound was administered thereto (or no treatment was given). Ten minutes later, carbachol (10^-8 to 10^-3 M) was cumulatively administered in three-fold increased doses to obtain a dose-response curve. The dose-response curve was plotted by expressing responses as percentages based on the reference contraction of the preparation as 100%. The antagonistic potency (KB value) of the test compound was determined from the degree of shift of the dose-response curve obtained by treatment with the test compound.

In experiment [5] the target is T5, ileum M3 receptor (Rattus norvegicus, UniProt P08483).
T5 construct: the ileum was isolated and formed into 2 cm-long preparations; from tissue; host or cells: isolated rat ileum (male SD rats)
The experiment is described as follows: Antagonism to intestinal tract M3 receptor in isolated rat ileum. The note with it: agonist carbachol, read-out: KB ileus M3. The protocol: Male SD strain rats (200-300 g) were sacrificed by exsanguination, and the ileum was isolated and formed into 2 cm-long preparations. […] Tension in the preparation was isotonically recorded. After an hour's equilibration, the preparation was contracted twice with 10^-6 M carbachol, the second contraction being recorded as the reference contraction. After the preparation was washed with fresh solution and recovered to the base line, a test compounds was administered thereto (or no treatment was given). Ten minutes later, carbachol (10^-8 to 10^-3 M) was cumulatively administered to the preparation from at a low concentration to three-fold increased dose to obtain a dose-response curve. The dose-response curve was plotted by expressing responses as percentages based on the reference contraction of the preparation which was set to be 100%.

The target of experiment [6] is T6, bladder M3 receptor (Rattus norvegicus, UniProt P08483).
T6 construct: the urinary bladder was isolated; from tissue; host or cells: isolated rat urinary bladder (male SD rats)
The experiment is described as follows: Antagonism to bladder M3 receptor in isolated rat urinary bladder. The conditions noted are these: agonist carbachol.
Description: Male SD strain rats (200-300 g) were sacrificed by exsanguination and the urinary bladder was isolated. The bladders were cut into four longitudinal unfold sections, to form about 10 mm-long preparations. Each preparation was suspended in a Magnus tube filled with 5 ml of Krebs-Henseleit solution (gassed with 95% O2 -5% CO2 at 32° C.) at an initial tension of 0.5 g. The tension in the preparation was isometrically recorded. After an hour's equilibration, the preparation was contracted twice with 10^-4 M carbachol, the second contraction being recorded as the reference contraction. After the preparation was washed with fresh solution and recovered to the base line, a test compound was administered thereto (or no treatment was given). Ten minutes later, carbachol (10^-8 to 10^-3 M) was cumulatively administered to the preparation from at a low concentration to three-fold increased dose to obtain a dose-response curve. The dose-response curve was plotted by expressing responses as percentages based on the reference contraction of the preparation which was set to be 100%. The antagonistic potency (KB value) of the test compound was determined from the degree of shift in the dose-response curve resulted from the treatment with the test compound.

Experiment [7] relates to airway resistance increase. The experiment is described as follows: Airway resistance enhancement in rats (acetylcholine-induced). Format: in vivo, rat. The note with it: for ED50: iv, 5 min, rat, i.v., acetylcholine 50 μg/kg, read-out: airway constriction ID50; for activities in both airway constriction and bradycardia, in words: in vivo, Table 3, both tests. As to the method:
Eight- to eleven-weeks-old Sprague-Dawley strain rats (300-400 g) were anesthetized with urethane (750 mg/kg, i.p.) and α-chloralose (37.5 mg/kg, i.p.). The bronchus of each rat was intubated, and the right jugular vein was cannulated for drug administration. […] After stable airway resistance increase induced by intravenous administration of acetylcholine (50 μg/kg) was observed, a test compound was administered intravenously. After 5 minutes, once again the airway resistance increase was induced with acetylcholine. The inhibition ratio of the tested compound on the airway resistance increase before administration of the test compound was calculated, and the dose of the test compound which inhibited the airway resistance obtained before the drug administration by 50% was recorded as ID50 value.

The subject of experiment [8] is bradycardia. The experiment is described as follows: Rat bradycardia (acetylcholine-induced). Format: in vivo. The note with it: for ED50: iv, 5 min, rat, i.v., acetylcholine 10 μg/kg, read-out: bradycardia ID50; for selectivity of bronchodilation over bradycardiac response, in words: in vivo, Table 3. As to the method:
Eight- to eleven-weeks-old Sprague-Dawley strain rats (300-400 g) were anesthetized by intraperitoneal injection of urethane (750 mg/kg) and α-chloralose (37.5 mg/kg), and their right carotid artery, left juglar vein and airway of the rat were cannulated. […] After stable bradycardia induced by intravenous administration of acetylcholine (10 μg/kg) was observed, a test compound was intravenously administered. Five minutes later, bradycardia was induced once again with acetylcholine administration. The inhibition ratio to the bradyeardia obtained before the administration of the test compound was calculated, and the dose of the test compound which inhibited the bradycardia obtained before the drug administration by 50% was recorded as ID50 value.

For experiment [9], the target named is T7, muscarinic M1 receptor (Rattus norvegicus, UniProt P08482).
T7 construct: a cerebral cortex membrane preparation, 1 nM; from tissue; host or cells: rat cerebral cortex membranes (male SD rats)
T7 sequence (P08482 1-460): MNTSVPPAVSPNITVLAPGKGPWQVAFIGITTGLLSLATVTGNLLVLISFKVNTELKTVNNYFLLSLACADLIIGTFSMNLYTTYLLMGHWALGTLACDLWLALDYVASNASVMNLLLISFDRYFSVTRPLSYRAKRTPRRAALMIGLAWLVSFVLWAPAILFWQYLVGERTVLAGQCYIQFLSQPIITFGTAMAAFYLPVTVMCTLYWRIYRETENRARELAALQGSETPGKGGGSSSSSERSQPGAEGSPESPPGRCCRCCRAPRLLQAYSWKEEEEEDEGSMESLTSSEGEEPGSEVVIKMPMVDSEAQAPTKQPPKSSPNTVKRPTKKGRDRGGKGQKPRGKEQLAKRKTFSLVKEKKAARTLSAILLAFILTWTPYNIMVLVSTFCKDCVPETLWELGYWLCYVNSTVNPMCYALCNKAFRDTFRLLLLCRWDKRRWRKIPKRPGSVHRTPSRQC
Briefly: Inhibition of M1 muscarinic receptor binding ([3H]-telenzepine, cerebral cortex membrane). The conditions noted are these: 1 nM [3H]-telenzepine. The protocol:
as §1, §2

The structures appear in SMILES notation.

T2 sequence (P08483 whole entry): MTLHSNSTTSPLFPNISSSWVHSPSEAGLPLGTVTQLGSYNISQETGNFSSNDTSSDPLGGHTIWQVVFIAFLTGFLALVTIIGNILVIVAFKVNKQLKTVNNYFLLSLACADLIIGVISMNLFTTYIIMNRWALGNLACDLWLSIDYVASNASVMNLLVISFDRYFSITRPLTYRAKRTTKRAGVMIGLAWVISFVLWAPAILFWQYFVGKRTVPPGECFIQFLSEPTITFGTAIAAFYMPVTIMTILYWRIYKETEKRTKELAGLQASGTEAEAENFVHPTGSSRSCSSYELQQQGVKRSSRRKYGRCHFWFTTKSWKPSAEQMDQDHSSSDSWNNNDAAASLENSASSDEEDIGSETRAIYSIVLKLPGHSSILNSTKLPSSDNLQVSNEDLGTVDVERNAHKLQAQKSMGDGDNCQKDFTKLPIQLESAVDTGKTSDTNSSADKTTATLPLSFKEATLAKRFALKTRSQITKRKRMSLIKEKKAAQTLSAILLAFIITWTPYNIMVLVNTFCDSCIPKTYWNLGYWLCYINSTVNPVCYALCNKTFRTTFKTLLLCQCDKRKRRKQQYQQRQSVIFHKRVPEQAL
T5 sequence (P08483 whole entry): as above
T4 sequence (P08483 whole entry): as above
T6 sequence (P08483 whole entry): as above

Regarding `Cc1cccc(CN2CCC(NC(=O)[C@](O)(c3ccccc3)C3CCCC3)CC2)n1.Cl.Cl` [Example 1, (2R)-N-[1-(6-methyl-2-pyridylmethyl)piperidin-4-yl]-2-cyclopentyl-2-hydroxy-2-phenylacetamide dihydrochloride], the Ki in experiment [1] amounted to 1100 nM; in [2], 2.9 nM. Also, the Kb in experiment [3] was determined as 1100 nM; in [4], 4.4 nM; in experiment [5], 70 nM; in [6], 3.6 nM. Moreover, the ED50 in experiment [7] was 37 µg/kg; in [8] it was above 3000 µg/kg.
`COc1ccnc(CN2CCC(NC(=O)C(O)(c3ccccc3)C3CCCC3)CC2)c1` (stereo not shown) [Example 9, N-[1-(4-methoxy-2-pyridylmethyl)piperidin-4-yl]-2-cyclopentyl-2-hydroxy-2-phenylacetamide] returned a Ki in experiment [9] of 29 nM. The affinity in [1] corresponds to a Ki of 1300 nM. Besides, in experiment [2], affinity was put at a Ki of 9.4 nM, the “M1 / M3” value is 3.1 and the “M2 / M3” value came to 140.
Consider `O=C(NC1CCN(Cc2cccc(Cl)n2)CC1)C(O)(c1ccccc1)C1CCCC1` (stereo not shown) [Example 10, N-[1-(6-chloro-2-pyridylmethyl)piperidin-4-yl]-2-cyclopentyl-2-hydroxy-2-phenylacetamide], for which the inhibition constant (Ki) in experiment [9] turned out to be 16 nM; in experiment [1], 1300 nM; in [2], 7.6 nM. Besides, in experiment [2], the “M1 / M3” value worked out at 2.1. Further, the “M2 / M3” value in experiment [2] came out at 170.
For `O=C(NC1CCN(Cc2cc(Cl)ccn2)CC1)C(O)(c1ccccc1)C1CCCC1` (stereo not shown) [Example 11, N-[1-(4-chloro-2-pyridylmethyl)piperidin-4-yl]-2-cylopentyl-2-hydroxy-2-phenylacetamide] the same measures were 11 nM, 730 nM, 8.8 nM, 1.3 and 83.
As for `CN1[C@@H]2CC[C@H]1C[C@@H](OC(=O)C(CO)c1ccccc1)C2` (stereo partly shown) [atropine], in [7], the “activities in both airway constriction and bradycardia, in words” value is reported as “potent activities in both cases”; the ED50 was 4.3 µg/kg. Also, in experiment [8], the “selectivity of bronchodilation over bradycardiac response, in words” value was “non-selective” and the ED50 worked out at 3.7 µg/kg.
For `CC(C)[N+]1(C)[C@@H]2CC[C@H]1C[C@@H](OC(=O)C(CO)c1ccccc1)C2` (stereo partly shown) [ipratropium] the same measures were “potent activities in both cases”, 1.5 µg/kg, “non-selective” and 1.8 µg/kg.

By Ki is commonly meant a measure of affinity in units of concentration, obtained from inhibition or displacement. A higher Ki goes with lower affinity. A word on the Kb: it is the equilibrium dissociation constant of an antagonist, usually derived from a functional assay.

The record behind these values is patent US6130232A, “Substituted piperidine derivatives as muscarinic M3 receptor antagonists” (Banyu Pharmaceutical Coaltd, priority 1995, dated 2000).
